Key:
[1] = Metabolic degradation after intravenous injection of 6-F3 βCD; type: in vivo, BALB/C mouse; details: mouse, i.v. injection, over the first fifteen minutes; 15 min
Experimental: A Bruker AM-300 (7.05 Tesla, 282.39 Mhz) and a Bruker CXP-100 (2.35 Telsa, 94.26 Mhz, 40 cm. bore) spectrometer were used for ^19 F NMR spectroscopy. The CXP-100 spectrometer was used with a 20 mm diameter, three turn horizontal coil. The biodistribution and excretion study of Example 4 was performed on the CXP-100 spectrometer, while ^1 H, ^13 C and ^19 F NMR spectra for synthesized compounds, blood, urine and extracts of liver were obtained using the Bruker AM-300 instrument. The ^19 F NMR were acquired over a spectral width of 70.0 ppm (between +60.0 and -10.0 ppm). The number of scans varied from 2.5 k to 45 k scans depending on the size of biological samples. An aqueous solution of chromium acetate (90 μL; 0.1M) was used as a relaxation agent to enhance the S/N ratio. Exponential line broadening of 0-40 Hz was imposed on the data prior to Fourier transformation. An aqueous solution of potassium fluoride (5 μL; 0.2M) was used as an internal standard during acquisition of ^19 F NMR spectra while ^1 H and ^13 C NMR spectra were locked on deuterium. D2 O was used as a solvent for samples of blood, urine and liver extract) which appeared at δ4.68 ppm (^1 H NMR spectra) with respect to tetramethylsilane. The resolution limits for ^1 H, ^13 C and ^19 F were observed between 0.5-1.1, 2.0-3.0 and 1.3-20.0 Hz, respectively. The chemical shifts are reported in δ ppm. […]

[2] = Biodistribution of 6-F3 βCD at 15 minutes after a single intravenous dose; type: in vivo, BALB/C mouse; details: mouse
Experimental: A Bruker AM-300 (7.05 Tesla, 282.39 Mhz) and a Bruker CXP-100 (2.35 Telsa, 94.26 Mhz, 40 cm. bore) spectrometer were used for ^19 F NMR spectroscopy. The CXP-100 spectrometer was used with a 20 mm diameter, three turn horizontal coil. The biodistribution and excretion study of Example 4 was performed on the CXP-100 spectrometer, while ^1 H, ^13 C and ^19 F NMR spectra for synthesized compounds, blood, urine and extracts of liver were obtained using the Bruker AM-300 instrument. The ^19 F NMR were acquired over a spectral width of 70.0 ppm (between +60.0 and -10.0 ppm). The number of scans varied from 2.5 k to 45 k scans depending on the size of biological samples. An aqueous solution of chromium acetate (90 μL; 0.1M) was used as a relaxation agent to enhance the S/N ratio. Exponential line broadening of 0-40 Hz was imposed on the data prior to Fourier transformation. An aqueous solution of potassium fluoride (5 μL; 0.2M) was used as an internal standard during acquisition of ^19 F NMR spectra while ^1 H and ^13 C NMR spectra were locked on deuterium. D2 O was used as a solvent for samples of blood, urine and liver extract) which appeared at δ4.68 ppm (^1 H NMR spectra) with respect to tetramethylsilane. The resolution limits for ^1 H, ^13 C and ^19 F were observed between 0.5-1.1, 2.0-3.0 and 1.3-20.0 Hz, respectively. The chemical shifts are reported in δ ppm.
6-F3 βCD (90 mg/ml in water) was administered to a BALB/C mouse by intravenous injection through the tail vein, at a dose of 13.5 mg 6-F3 βCD per mouse. The mouse was placed in a beaker layered with filter paper to absorb the urine excreted during the experiment. 15 minutes after administration of the drug complex, blood was collected by cardiac puncture, the mouse was sacrificed by euthanasia in dry ice and the desired organs were collected by dissection. All samples were immediately frozen and held frozen until NMR studies.

metabolic degradation, share of the administered dose [1]: less than 5%
% Dose in tail ([2]; single i.v. 13.5 mg per mouse (tail vein), tail): 2.14 % Dose
% Dose in blood ([2]; single i.v. 13.5 mg per mouse, blood): 62.59 % Dose
% Dose in intestine ([2]; single i.v. 13.5 mg per mouse, intestine): 0.72 % Dose
% Dose in kidney ([2]; single i.v. 13.5 mg per mouse, kidney): 1.87 % Dose
% Dose in liver ([2]; single i.v. 13.5 mg per mouse, liver): 4.09 % Dose
% Dose in urine ([2]; single i.v. 13.5 mg per mouse, urine): 40.96 % Dose
Compound: O[C@@H]1[C@@H](O)[C@H]2O[C@H]3[C@H](O)[C@@H](O)[C@@H](O[C@H]4[C@H](O)[C@@H](O)[C@@H](O[C@H]5[C@H](O)[C@@H](O)[C@@H](O[C@H]6[C@H](O)[C@@H](O)[C@@H](O[C@H]7[C@H](O)[C@@H](O)[C@@H](O[C@H]8[C@H](O)[C@@H](O)[C@@H](O[C@@H]1[C@@H](COCC(F)(F)F)O2)O[C@@H]8COCC(F)(F)F)O[C@@H]7COCC(F)(F)F)O[C@@H]6COCC(F)(F)F)O[C@@H]5COCC(F)(F)F)O[C@@H]4COCC(F)(F)F)O[C@@H]3COCC(F)(F)F [6-F3 βCD, Heptakis [6.0-(2,2,2-trifluoroethyl)]-β-cyclodextrin]

From patent publication US5739121A, “Fluorocyclosaccharide drug delivery systems” (University of Alberta, priority 1993, dated 1998)
